Reference: patent EP2071024A1, “Peptides of human prostatic acid phosphatase enhancing viral infectivity” (Pharis Biotec GmbH, priority 2007, dated 2009)
Ends that are not written are not given here.

Test system: peripheral blood mononuclear cells (PBMC)
Assay: MTT cytotoxicity assay
Type: cell-based
Conditions: stimulated PBMC, incubated for 3 days, high concentrations, listed as monomeric PAP85-120
Method: To determine possible cytotoxic effects of PAP85-120 fibrils, serial dilutions of fibrils were added to stimulated peripheral blood mononuclear cells (PBMC) and incubated for 3 days (see example 8). Thereafter 10 µl of a 5 mg/ml MTT (Sigma; # M2128) solution was added and cells were incubated for 4 h at 37°C. In living cells mitochondrial dehydrogenases […] the yellow MTT salt to blue formazan crystals (Schiff et al.; 1985). After dissolving the crystals in 1:1 Ethanol/DMSO, samples containing living cells appear blue whereas samples from dead cells are clear. Optical density (OD) was measured at 560/650 nm using a photometer (Molecular Devices).
Fig. 5: PAP85 is non cytotoxic. Peripheral blood mononuclear cells (PBMC) were stimulated with phytohemagglutinine (2 µg/ml) and Interleukin 2 (10 µg/ml) for three days. Thereafter cells were sown out in 96 well dishes containing the indicated concentrations of freshly dissolved monomeric PAP85 or fibrillar PAP85 and incubated for 3 days. Cytotoxicity was determined by detecting dehydrogenase activity in living cells using the MTT assay. Values represent average values +/- SD derived from triplicates.

IRKRYRKFLNESYKHEQVYIRSTDVDRTLMSAMTNL [freshly dissolved PAP85-120]
cell viability / cytotoxic effects: do not exert cytotoxic effects
